Series [1] addresses Human CB1 Receptor-1 (hCB1) (Homo sapiens (Human), UniProt P21554). Kind of series: hCB1 Gai cyclic AMP (cAMP) TR-FRET assay, antagonism of EC80 CP55940 with forskolin. The format is cell-based. The conditions noted are these: hCB1 cells, 30 min pre-incubation. The essentials: (§1)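 Cells expressing hCB1 or hCB1b were preincubated with compound for 30 min at rt, then stimulated with an EC80 concentration of CP55940 plus forskolin for 20 min at 37C. cAMP was measured by TR-FRET using Eu-cAMP and 650-labeled anti-cAMP in lysis buffer, with emission at 620/665 nm. IC50 values are binned by category.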

Series [2] has as its target Human CB1 Receptor-1b (hCB1b) (Homo sapiens (Human), UniProt P21554). Nature of the series: hCB1b Gai cyclic AMP (cAMP) TR-FRET assay, antagonism of EC80 CP55940 with forskolin. The conditions noted are these: hCB1b cells, 30 min pre-incubation, read-out: CB1b IC50. The format is cell-based. Summed up: as §1
(In general: In TR-FRET formats the signal depends on donor and acceptor labels being close together.)

Series [3] in a line: Pharmacokinetics following oral administration in male C57BL/6 mice: brain/plasma ratio. The format is in vivo. The conditions noted are these: single PO 10 mg/kg, compared to rimonabant 10 mg/kg PO. As for the experimental part: FIG. 2 provides graphs showing the brain/plasma ratio of orally administered Compound 9 (10 mg/kg) in comparison to orally administered rimonabant (10 mg/kg) C57BL/6J in mice, as measured by area under the curve from 0 to 24 hours (AUC0-24) and maximum concentration (Cmax) post administration.
Example 5. Pharmacokinetics of Following Oral Administration in Male C57BL/6 Mice
A study was conducted to compare the brain/plasma ratios of Compound 9 and rimonabant following oral administration in mice.
Fasted overnight with free access to water and fed 4 hr post dosing
PO administration via oral gavage
Group 2: PO, 10 mg/kg, 10 mL/kg
0.5% MC (400 cp) in purified water (1 mg/mL)
Terminal sampling for brain @0.25, 0.5, 1, 2, 4, 8 and 24 hr, 7 time points. (N=3/timepoint, N=21/arm); collect brains after perfusion.

Each structure is given as a SMILES string. pIC50: −log10 of the molar value.

Chain of Human CB1 Receptor-1 (hCB1) (P21554 whole entry): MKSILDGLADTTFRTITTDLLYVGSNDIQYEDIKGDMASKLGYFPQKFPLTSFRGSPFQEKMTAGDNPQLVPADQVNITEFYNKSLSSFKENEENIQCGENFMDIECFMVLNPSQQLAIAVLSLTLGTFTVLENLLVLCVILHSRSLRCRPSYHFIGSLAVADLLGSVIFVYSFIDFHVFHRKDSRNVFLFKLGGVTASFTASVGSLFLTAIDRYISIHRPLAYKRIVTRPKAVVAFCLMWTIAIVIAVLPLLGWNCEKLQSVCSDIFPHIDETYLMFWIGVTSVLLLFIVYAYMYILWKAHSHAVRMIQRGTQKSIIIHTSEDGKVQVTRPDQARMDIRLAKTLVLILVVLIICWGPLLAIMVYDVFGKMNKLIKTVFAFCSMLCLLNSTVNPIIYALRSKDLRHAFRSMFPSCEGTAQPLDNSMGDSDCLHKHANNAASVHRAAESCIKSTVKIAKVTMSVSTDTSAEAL
Chain of Human CB1 Receptor-1b (hCB1b) (P21554 other isoform, or with tags, fused parts or gaps): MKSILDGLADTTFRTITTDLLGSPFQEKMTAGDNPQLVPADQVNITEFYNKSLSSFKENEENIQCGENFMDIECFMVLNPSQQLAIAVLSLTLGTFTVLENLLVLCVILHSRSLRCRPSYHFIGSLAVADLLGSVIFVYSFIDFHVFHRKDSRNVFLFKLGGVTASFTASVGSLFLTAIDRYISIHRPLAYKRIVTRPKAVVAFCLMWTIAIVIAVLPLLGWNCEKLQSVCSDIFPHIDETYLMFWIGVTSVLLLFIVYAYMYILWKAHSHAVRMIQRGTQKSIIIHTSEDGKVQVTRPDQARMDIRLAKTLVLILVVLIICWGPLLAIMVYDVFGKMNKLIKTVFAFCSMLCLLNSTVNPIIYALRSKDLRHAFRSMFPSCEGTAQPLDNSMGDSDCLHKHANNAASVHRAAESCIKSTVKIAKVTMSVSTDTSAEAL

In the case of `NS(=O)(=O)CCNC(=NS(=O)(=O)c1ccc(C(F)(F)F)cc1)N1C[C@H](c2ccccc2)C(c2ccc(Cl)cc2)=N1` [Compound 9, (S,E)-3-(4-chlorophenyl)-4-phenyl-N-(2-sulfamoylethyl)-N′-((4-(trifluoromethyl)phenyl)sulfonyl)-4,5-dihydro-1H-pyrazole-1-carboximidamide], the pIC50 in series [1] and in series [2] was above 7.00 each time. In series [3], the “blood-brain-barrier penetration (brain/plasma ratio by AUC0-24 and Cmax)” value is on record as “substantially reduced blood-brain-barrier penetration as compared to rimonabant”.
Take `NS(=O)(=O)NC1(CN/C(=N\S(=O)(=O)c2ccc(C(F)(F)F)cc2)N2C[C@H](c3ccccc3)C(c3ccc(Cl)cc3)=N2)CC1` [Compound 235, (S,E)-3-(4-chlorophenyl)-4-phenyl-N-((1-(sulfamoylamino)cyclopropyl)methyl)-N′-((4-(trifluoromethyl)phenyl)sulfonyl)-4,5-dihydro-1H-pyrazole-1-carboximidamide]: the negative-log IC50 (pIC50) is 6.30 to 7.00 in series [1] and above 7.00 in series [2].
The matching figures for `NS(=O)(=O)N1CC[C@@H](N/C(=N/S(=O)(=O)c2ccc(Cl)cc2)N2C[C@H](c3ccccc3)C(c3ccc(Cl)cc3)=N2)C1` [Compound 247, (S,Z)-3-(4-chlorophenyl)-N′-((4-chlorophenyl)sulfonyl)-4-phenyl-N-((R)-1-sulfamoylpyrrolidin-3-yl)-4,5-dihydro-1H-pyrazole-1-carboximidamide]: 6.30 to 7.00 and above 7.00.

Usually pIC50 stands for the IC50 on a negative log10 scale, so that one unit is a factor of ten.
